Laboratory results: PMC12586182 (Frontiers in Oncology, 2025)

Tests used:
Test in all cases: Kinase panel profiling at 1 µmol/L (mobility shift assay, Carna)
[1] = target: T1, HER2 (Homo sapiens, UniProt P04626); format: biochemical; details: 1 µmol/L of BTK inhibitor
T1 construct: purchased Carna Biosciences

[2] = target: T2, EPHA6 (Homo sapiens, UniProt Q9UF33); format: biochemical; details: 1 µmol/L of BTK inhibitor
T2 construct: purchased Carna Biosciences
T2 sequence (Q9UF33 23-1036): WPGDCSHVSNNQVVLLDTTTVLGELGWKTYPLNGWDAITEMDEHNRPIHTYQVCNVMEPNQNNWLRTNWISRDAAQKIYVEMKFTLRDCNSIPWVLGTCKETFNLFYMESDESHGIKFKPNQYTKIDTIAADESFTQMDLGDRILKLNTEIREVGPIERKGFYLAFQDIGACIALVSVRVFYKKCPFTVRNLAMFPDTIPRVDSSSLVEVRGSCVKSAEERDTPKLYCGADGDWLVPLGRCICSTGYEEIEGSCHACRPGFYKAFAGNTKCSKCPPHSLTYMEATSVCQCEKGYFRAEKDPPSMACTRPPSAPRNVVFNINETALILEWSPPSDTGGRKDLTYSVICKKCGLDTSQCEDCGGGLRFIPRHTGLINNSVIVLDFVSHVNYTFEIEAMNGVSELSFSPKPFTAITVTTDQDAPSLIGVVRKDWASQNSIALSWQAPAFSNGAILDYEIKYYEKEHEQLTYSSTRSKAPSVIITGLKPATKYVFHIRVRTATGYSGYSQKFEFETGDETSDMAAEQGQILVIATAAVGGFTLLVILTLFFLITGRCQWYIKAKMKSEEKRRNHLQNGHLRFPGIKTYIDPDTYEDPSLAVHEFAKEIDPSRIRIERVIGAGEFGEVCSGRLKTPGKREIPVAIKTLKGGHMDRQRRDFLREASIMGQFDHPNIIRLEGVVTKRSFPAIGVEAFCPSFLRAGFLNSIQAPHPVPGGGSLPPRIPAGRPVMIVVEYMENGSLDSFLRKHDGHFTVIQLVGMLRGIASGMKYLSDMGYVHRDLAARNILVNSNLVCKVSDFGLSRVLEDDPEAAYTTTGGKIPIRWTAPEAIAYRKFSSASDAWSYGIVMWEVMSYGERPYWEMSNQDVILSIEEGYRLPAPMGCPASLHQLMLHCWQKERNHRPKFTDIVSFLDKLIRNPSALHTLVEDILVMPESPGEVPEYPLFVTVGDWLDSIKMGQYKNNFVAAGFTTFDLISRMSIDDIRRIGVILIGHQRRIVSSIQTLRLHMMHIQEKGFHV

[3] = target: T3, EPHA5 (Homo sapiens, UniProt P54756); format: biochemical; details: 1 µmol/L of BTK inhibitor
T3 construct: purchased Carna Biosciences

[4] = target: T4, CDK4/CycD3 (Homo sapiens, UniProt P11802); format: biochemical; details: 1 µmol/L of BTK inhibitor
T4 construct: purchased Carna Biosciences
T4 sequence (P11802 whole entry): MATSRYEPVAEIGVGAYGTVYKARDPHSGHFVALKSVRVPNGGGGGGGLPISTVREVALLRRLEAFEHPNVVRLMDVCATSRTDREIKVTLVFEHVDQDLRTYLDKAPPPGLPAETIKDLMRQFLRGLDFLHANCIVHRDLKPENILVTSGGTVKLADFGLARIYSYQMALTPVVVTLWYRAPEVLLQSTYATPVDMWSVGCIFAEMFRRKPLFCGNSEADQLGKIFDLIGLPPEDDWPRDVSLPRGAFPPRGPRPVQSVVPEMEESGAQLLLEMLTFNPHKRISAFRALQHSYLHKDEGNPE
T4 sequence (P30281 whole entry partner): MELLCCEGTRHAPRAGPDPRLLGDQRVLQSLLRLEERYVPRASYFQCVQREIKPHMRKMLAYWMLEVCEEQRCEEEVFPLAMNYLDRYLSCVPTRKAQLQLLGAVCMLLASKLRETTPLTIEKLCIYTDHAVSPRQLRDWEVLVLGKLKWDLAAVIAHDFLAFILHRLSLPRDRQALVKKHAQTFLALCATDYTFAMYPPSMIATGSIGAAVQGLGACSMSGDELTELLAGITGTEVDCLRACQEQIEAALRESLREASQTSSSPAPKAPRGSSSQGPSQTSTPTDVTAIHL

[5] = target: T5, PAK5 (Homo sapiens, UniProt Q9P286); format: biochemical; details: 1 µmol/L of BTK inhibitor
T5 construct: purchased Carna Biosciences
T5 sequence (Q9P286 whole entry): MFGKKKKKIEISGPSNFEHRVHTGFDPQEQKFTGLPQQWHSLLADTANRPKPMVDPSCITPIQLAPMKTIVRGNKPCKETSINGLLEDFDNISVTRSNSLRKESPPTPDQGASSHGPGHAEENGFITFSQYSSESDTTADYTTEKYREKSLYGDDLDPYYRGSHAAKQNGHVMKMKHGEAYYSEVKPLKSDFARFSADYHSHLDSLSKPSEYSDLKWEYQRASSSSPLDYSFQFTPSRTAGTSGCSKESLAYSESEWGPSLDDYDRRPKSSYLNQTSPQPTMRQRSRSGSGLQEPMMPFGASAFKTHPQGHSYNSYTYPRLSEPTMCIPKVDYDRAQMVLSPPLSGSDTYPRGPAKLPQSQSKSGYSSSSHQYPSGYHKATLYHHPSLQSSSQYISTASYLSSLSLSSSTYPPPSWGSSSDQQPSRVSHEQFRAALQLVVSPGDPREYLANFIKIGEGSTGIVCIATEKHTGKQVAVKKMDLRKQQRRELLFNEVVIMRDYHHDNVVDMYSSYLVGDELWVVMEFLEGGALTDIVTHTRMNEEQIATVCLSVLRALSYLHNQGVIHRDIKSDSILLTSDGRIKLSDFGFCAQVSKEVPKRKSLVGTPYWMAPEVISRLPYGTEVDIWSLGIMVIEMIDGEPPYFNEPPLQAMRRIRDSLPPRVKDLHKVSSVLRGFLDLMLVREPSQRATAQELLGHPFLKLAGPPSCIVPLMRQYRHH

[6] = target: T6, CaMK2β (Homo sapiens, UniProt Q13554); format: biochemical; details: 1 µmol/L of BTK inhibitor
T6 construct: purchased Carna Biosciences

[7] = target: T7, CDK5/p25 (Homo sapiens, UniProt Q00535); format: biochemical; details: 1 µmol/L of BTK inhibitor
T7 construct: purchased Carna Biosciences

[8] = target: T8, PKCθ (Homo sapiens, UniProt Q04759); format: biochemical; details: 1 µmol/L of BTK inhibitor
T8 construct: purchased Carna Biosciences

[9] = target: T9, MSK2 (Homo sapiens, UniProt O75676); format: biochemical; details: 1 µmol/L of BTK inhibitor
T9 construct: purchased Carna Biosciences

[10] = target: T10, RSK1 (Homo sapiens, UniProt Q15418); format: biochemical; details: 1 µmol/L of BTK inhibitor
T10 construct: purchased Carna Biosciences

[11] = target: T11, MRCKα (Homo sapiens, UniProt Q5VT25); format: biochemical; details: 1 µmol/L of BTK inhibitor
T11 construct: purchased Carna Biosciences

[12] = target: T12, JNK2 (Homo sapiens, UniProt P45984); format: biochemical; details: 1 µmol/L of BTK inhibitor
T12 construct: purchased Carna Biosciences
T12 sequence (P45984 whole entry): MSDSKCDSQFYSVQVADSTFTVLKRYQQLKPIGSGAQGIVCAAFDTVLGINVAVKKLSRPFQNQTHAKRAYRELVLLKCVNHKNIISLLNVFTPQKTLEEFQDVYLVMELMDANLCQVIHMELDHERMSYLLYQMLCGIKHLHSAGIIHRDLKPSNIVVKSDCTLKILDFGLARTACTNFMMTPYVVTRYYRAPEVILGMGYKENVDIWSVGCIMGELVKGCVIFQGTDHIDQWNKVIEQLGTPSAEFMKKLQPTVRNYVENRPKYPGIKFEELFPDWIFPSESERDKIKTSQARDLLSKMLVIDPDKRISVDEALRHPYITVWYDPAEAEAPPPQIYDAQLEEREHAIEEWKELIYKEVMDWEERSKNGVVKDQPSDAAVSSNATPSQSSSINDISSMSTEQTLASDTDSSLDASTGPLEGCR

[13] = target: T13, WNK2 (Homo sapiens, UniProt Q9Y3S1); format: biochemical; details: 1 µmol/L of BTK inhibitor
T13 construct: purchased Carna Biosciences

[14] = target: T14, CK1δ (Homo sapiens, UniProt P48730); format: biochemical; details: 1 µmol/L of BTK inhibitor
T14 construct: purchased Carna Biosciences

[15] = target: T15, TBK1 (Homo sapiens, UniProt Q9UHD2); format: biochemical; details: 1 µmol/L of BTK inhibitor
T15 construct: purchased Carna Biosciences
T15 sequence (Q9UHD2 1-729): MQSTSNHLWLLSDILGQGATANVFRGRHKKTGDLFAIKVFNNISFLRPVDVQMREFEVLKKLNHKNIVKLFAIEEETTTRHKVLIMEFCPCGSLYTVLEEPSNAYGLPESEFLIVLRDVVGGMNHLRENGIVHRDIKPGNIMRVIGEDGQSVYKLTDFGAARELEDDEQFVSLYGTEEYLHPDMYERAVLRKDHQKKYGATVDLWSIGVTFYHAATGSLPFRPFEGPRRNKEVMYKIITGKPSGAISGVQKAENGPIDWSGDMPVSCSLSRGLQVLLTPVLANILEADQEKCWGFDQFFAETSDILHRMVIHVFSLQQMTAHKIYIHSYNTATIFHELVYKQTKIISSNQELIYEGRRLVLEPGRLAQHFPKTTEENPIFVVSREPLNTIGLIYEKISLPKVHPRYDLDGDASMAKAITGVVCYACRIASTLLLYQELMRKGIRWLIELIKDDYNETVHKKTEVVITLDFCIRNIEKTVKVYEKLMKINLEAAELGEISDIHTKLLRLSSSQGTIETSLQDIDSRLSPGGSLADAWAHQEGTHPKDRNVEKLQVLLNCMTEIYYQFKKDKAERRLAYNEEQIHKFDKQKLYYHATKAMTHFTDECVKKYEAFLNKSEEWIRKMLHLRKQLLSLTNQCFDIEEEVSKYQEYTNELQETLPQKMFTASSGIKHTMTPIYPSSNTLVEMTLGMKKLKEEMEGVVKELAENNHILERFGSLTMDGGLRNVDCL

[16] = target: T16, CRIK (Homo sapiens, UniProt O14578); format: biochemical; details: 1 µmol/L of BTK inhibitor
T16 construct: purchased Carna Biosciences
T16 sequence (O14578 whole entry): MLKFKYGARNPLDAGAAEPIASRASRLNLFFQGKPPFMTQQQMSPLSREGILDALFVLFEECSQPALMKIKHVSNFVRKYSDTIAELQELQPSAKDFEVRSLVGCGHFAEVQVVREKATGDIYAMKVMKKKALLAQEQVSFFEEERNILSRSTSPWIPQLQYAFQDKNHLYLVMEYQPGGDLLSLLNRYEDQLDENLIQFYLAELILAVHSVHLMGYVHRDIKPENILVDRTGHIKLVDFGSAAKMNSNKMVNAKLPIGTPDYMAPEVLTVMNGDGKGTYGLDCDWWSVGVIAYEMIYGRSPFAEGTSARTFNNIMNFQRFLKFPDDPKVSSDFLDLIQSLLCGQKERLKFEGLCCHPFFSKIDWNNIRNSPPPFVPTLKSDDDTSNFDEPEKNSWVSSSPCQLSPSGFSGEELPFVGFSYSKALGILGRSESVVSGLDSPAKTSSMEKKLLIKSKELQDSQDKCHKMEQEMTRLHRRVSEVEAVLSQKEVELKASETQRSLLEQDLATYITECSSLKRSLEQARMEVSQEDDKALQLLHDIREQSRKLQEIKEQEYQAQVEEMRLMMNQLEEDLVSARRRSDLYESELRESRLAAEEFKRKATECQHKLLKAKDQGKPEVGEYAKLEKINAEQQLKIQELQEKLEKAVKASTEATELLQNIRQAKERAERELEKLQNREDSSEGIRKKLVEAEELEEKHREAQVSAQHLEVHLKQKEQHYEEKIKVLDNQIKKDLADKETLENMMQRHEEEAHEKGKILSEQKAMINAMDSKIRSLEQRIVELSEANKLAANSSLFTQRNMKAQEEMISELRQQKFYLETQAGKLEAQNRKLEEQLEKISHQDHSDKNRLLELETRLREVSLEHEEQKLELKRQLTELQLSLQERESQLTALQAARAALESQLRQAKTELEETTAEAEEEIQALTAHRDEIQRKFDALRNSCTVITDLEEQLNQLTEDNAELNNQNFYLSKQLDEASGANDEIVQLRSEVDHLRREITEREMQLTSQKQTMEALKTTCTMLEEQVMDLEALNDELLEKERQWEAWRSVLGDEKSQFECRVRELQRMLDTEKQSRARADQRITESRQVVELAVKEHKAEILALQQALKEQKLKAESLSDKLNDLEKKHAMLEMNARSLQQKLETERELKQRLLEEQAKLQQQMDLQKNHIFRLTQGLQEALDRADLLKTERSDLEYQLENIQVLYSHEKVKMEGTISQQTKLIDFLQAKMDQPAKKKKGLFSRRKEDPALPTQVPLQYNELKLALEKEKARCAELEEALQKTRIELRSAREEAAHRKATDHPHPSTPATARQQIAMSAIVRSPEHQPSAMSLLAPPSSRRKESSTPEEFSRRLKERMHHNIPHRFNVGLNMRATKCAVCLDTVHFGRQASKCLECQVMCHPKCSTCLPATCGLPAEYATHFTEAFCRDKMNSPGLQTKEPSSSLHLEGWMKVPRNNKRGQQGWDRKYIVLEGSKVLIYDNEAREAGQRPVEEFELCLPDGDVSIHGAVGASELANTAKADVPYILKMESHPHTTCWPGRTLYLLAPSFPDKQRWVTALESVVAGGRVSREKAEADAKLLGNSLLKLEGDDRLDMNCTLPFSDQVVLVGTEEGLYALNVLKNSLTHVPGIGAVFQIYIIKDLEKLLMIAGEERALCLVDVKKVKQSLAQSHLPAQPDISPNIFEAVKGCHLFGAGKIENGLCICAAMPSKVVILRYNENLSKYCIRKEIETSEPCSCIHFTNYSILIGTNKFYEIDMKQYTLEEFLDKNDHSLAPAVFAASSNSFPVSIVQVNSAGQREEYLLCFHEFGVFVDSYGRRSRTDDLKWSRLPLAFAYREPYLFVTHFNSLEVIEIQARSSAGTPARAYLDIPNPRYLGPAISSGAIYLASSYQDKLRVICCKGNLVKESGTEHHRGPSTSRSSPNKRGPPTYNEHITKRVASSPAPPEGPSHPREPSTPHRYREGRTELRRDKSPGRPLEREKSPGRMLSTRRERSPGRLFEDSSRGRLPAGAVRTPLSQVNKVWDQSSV

[17] = target: T17, CaMK1α (Homo sapiens, UniProt Q14012); format: biochemical; details: 1 µmol/L of BTK inhibitor
T17 construct: purchased Carna Biosciences

[18] = target: EGFR (Homo sapiens, UniProt P00533); details: for Percentage inhibition of kinase enzyme activity: EGFR, 1 µmol/L of BTK inhibitor
EGFR, sequence (P00533 25-1210): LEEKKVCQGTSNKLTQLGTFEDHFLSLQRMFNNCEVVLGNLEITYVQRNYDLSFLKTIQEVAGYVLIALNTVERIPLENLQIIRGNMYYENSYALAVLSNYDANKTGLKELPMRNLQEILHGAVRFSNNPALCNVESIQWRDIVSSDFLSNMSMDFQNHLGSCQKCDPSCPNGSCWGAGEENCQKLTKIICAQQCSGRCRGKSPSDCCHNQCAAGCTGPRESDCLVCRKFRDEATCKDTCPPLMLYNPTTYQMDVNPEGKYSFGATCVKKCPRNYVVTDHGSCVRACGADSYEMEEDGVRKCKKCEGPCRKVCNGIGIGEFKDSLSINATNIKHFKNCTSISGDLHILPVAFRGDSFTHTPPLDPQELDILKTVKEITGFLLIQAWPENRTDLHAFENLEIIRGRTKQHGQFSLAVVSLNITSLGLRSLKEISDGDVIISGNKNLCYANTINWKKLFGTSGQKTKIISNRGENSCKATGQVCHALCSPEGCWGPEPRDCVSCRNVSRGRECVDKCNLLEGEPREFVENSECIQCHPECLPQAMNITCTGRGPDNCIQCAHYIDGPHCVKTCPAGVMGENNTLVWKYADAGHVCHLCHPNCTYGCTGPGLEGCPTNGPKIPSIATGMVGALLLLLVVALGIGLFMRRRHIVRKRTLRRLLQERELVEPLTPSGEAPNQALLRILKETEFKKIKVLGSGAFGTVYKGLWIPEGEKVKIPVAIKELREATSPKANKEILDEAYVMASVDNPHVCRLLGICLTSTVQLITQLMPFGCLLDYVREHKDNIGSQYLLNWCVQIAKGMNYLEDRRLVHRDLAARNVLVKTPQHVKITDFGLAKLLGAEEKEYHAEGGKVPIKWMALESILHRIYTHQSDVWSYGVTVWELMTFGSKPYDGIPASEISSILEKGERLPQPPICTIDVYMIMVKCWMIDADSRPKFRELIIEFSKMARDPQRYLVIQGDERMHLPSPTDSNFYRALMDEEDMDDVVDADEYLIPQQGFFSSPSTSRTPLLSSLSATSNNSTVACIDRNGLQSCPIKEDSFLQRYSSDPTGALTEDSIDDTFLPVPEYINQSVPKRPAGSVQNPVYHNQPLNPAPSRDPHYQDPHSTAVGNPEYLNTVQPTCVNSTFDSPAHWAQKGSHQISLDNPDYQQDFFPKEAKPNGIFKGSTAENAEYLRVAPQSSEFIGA

[19] = target: T18, ROCK1 (Homo sapiens, UniProt Q13464); format: biochemical; details: 1 µmol/L of BTK inhibitor
T18 construct: purchased Carna Biosciences

SMILES	Percentage inhibition of kinase enzyme activity [1] [%]	Percentage inhibition of kinase enzyme activity [2] [%]	Percentage inhibition of kinase enzyme activity [3] [%]	Percentage inhibition of kinase enzyme activity [4] [%]	Percentage inhibition of kinase enzyme activity [5] [%]	Percentage inhibition of kinase enzyme activity [6] [%]	Percentage inhibition of kinase enzyme activity [7] [%]	Percentage inhibition of kinase enzyme activity [8] [%]	Percentage inhibition of kinase enzyme activity [9] [%]	Percentage inhibition of kinase enzyme activity [10] [%]	Percentage inhibition of kinase enzyme activity [11] [%]	Percentage inhibition of kinase enzyme activity [12] [%]	Percentage inhibition of kinase enzyme activity [13] [%]	Percentage inhibition of kinase enzyme activity [14] [%]	Percentage inhibition of kinase enzyme activity [15] [%]	Percentage inhibition of kinase enzyme activity [16] [%]	Percentage inhibition of kinase enzyme activity [17] [%]	Percentage inhibition of kinase enzyme activity [18] [%]	Percentage inhibition of kinase enzyme activity [19] [%]	inhibition at 1 µM ([18]; read-out: Inhibition of EGFR) [%]
C=CC(=O)N1CCC([C@@H]2CCNc3c(C(N)=O)c(-c4ccc(Oc5ccccc5)cc4)nn32)CC1 [zanubrutinib]	98.58	0.76	13.96	–	–	–	–	–	–	–	–	–	–	–	–	–	–	–	–	–
CC#CC(=O)N1CCC[C@H]1c1nc(-c2ccc(C(=O)Nc3ccccn3)cc2)c2c(N)nccn12 [acalabrutinib]	16.11	-2.37	-1.17	-13.28	-0.37	-1.09	-19.05	-8.13	1.53	3.57	-7.47	-1.85	0.79	2.76	2.14	-5.14	-4.29	19.39	-7.78	–
COc1ccc(F)cc1C(=O)NCc1ccc(-c2nn([C@@H](C)C(F)(F)F)c(N)c2C(N)=O)cc1 [pirtobrutinib]	35.83	6.36	0.45	4.05	-1.30	-2.89	4.92	4.94	1.57	5.53	0.63	7.41	11.58	6.20	2.58	-3.77	-9.87	85.26	-4.30	> 75
O=C(c1ccc(Oc2ccccc2)cc1Cl)c1c[nH]c2ncnc(N[C@@H]3CC[C@@H](CO)OC3)c12 [nemtabrutinib]	99.89	49.03	100.38	0.33	66.81	2.18	-18.80	-0.21	5.69	17.84	9.50	4.23	47.36	25.76	1.71	-5.26	11.41	99.77	16.05	–
C=CC(=O)N1CCC[C@@H](n2nc(-c3ccc(Oc4ccccc4)cc3)c3c(N)ncnc32)C1 [ibrutinib]	100.31	92.64	25.73	4.00	12.42	-2.56	-5.18	-1.13	-2.09	5.47	-0.62	-2.83	5.67	7.46	0.83	-0.17	13.82	–	-5.42	–
